Test results taken from publication PMC10095747, “Modulatory Effects of Atractylodin and β-Eudesmol on Human Cytochrome P450 Enzymes: Potential Drug-Drug Interactions” (Molecules, 2023).
Like-named read-outs stand apart in the source and are kept apart here.

Experiments:
[1] = target: rCYP2C9 (Homo sapiens, UniProt P11712); assay: luminogenic P450-Glo CYP450 inhibition assay, rCYP2C9; details: three independent experiments
Text: (§1) The luminescent cytochrome P450 assay was used to determine CYP450-mediated (CYP1A2, 2C9, 2C19, 2D6, and 3A4) metabolism of atractylodin and β-eudesmol. The assay consisted of each recombinant human CYP450 (rCYP450), control membranes lacking P450 activity, a luminogenic CYP450 substrate (luciferin-ME substrate for rCYP1A2, luciferin-H substrate for rCYP2C9, luciferin-H EGE substrate for rCYP2C19, luciferin-ME EGE substrate for rCYP2D6, and luciferin-IPA substrate for rCYP3A4), KPO4 buffer, luciferin free water, NADPH regeneration system, and a luciferin detection reagent. The rCYP450 enzymes were generated from a baculovirus-infected insect cell expression system. The concentrations of the recombinant CYPs used were 0.5 (rCYP1A2 and rCYP2C9), 0.25 (rCYP2C19 and rCYP2D6) or 0.2 (rCYP3A4) pmol (0.5μL) per reaction. […] A luciferin product was produced after adding 25 µL of NADPH Regeneration System (solution A, solution B, and luciferin-free water) and incubated at 37 °C for 10 (rCYP1A2 and rCYP3A4), 20 (rCYP2C19 and rCYP2C9) or 30 (rCYP2D6) minutes. The reaction was stopped and converted to a luminescent signal after adding Luciferin Detection Reagent (50 µL) and incubated at 25 °C for 20 min. The luminescence signals obtained were determined using a Varioskan® Flash microplate reader (Waltham, MA, USA). The magnitude of luminescence in all of the samples represented CYP450 activity. […] All stock solutions were diluted with luciferin-free water until the final concentration of organic solvent was less than 0.25% (v/v) of the total reaction. The concentration range of atractylodin and β-eudesmol used were 2.74–686 µM and 2.25–562 µM, respectively. […] The concentration that inhibited the activity of each rCYP450 by 50% (IC50) was calculated using Calcusyn software (Cambridge, UK). Data are reported as the median (range) of the three independent experiments.

[2] = target: rCYP2C19 (Homo sapiens, UniProt P33261); assay: luminogenic P450-Glo CYP450 inhibition assay, rCYP2C19; details: three independent experiments
Sequence of rCYP2C19 (P33261 whole entry): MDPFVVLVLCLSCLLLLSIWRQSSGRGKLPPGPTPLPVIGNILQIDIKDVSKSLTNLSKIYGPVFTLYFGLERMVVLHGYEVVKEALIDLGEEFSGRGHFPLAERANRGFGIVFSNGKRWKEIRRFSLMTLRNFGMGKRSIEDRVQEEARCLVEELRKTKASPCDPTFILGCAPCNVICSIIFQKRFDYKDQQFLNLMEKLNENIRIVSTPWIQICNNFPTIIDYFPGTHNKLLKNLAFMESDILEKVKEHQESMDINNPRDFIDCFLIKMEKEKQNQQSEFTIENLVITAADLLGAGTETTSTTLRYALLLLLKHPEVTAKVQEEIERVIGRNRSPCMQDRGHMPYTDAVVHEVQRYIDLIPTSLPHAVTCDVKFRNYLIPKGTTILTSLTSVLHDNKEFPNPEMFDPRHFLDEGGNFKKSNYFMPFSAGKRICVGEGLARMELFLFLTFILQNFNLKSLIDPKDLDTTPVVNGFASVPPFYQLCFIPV
Text: as §1

[3] = target: rCYP3A4 (Homo sapiens, UniProt P08684); assay: luminogenic P450-Glo CYP450 inhibition assay, rCYP3A4; details: three independent experiments
Sequence of rCYP3A4 (P08684 whole entry): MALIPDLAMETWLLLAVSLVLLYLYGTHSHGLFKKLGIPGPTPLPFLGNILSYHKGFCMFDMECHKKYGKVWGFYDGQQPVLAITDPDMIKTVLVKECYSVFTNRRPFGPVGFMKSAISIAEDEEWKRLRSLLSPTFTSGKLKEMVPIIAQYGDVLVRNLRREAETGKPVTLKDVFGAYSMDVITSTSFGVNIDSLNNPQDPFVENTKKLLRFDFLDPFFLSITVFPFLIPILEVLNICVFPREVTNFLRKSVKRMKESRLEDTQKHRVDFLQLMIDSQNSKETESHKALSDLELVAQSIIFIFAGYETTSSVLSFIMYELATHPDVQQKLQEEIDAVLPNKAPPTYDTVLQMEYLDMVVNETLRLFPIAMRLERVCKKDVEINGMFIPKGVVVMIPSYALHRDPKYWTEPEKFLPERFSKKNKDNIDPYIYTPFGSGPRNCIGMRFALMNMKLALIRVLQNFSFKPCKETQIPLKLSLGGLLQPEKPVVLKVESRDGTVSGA
Text: as §1

[4] = test system: mCYP1A2 mRNA; assay: ex vivo mCYP1A2 mRNA expression in mouse livers (real-time PCR); details: male ICR mice, daily oral 100 mg/kg body weight, vs control
Text: (§2) Eight-week-old male ICR (Imprinting Control Region) mice weighing 35–40 g were used to investigate the modulatory effects of atractylodin and β-eudesmol on mCYP1A2 and mCYP3A11. The study protocol was approved by the Ethics Committee for Animal Research at Thammasat University (protocol number 016/2020). All animals were obtained from Nomura Siam International Co., Ltd. (Bangkok, Thailand). The animals were acclimatized for one week before the experiments. A total of 36 mice were allocated to three groups (i) control group (3 mice), (ii) atractylodin-treated group, and (iii) β-eudesmol-treated group. For atractylodin and β-eudesmol-treated groups, animals were fed with 100 mg/kg body weight of each compound for 1, 7, 14, and 21 (3 mice for each dose). Experiments were performed under the guidelines for the care and use of laboratory animals in a controlled environment of 12 h dark/light cycle, temperature 22 ± 2 °C, and relative humidity 30–70% at the Thammasat University Animal Center. Animals were observed daily for changes in signs and symptoms by a veterinarian. Mice were allowed access to the food pellets and water ad libitum.
(§3) Total mRNA was extracted from mouse livers using Trizol according to the manufacturer’s instructions. The concentration of mRNA was quantified by a nanodrop spectrophotometer. The First-Strand cDNA Synthesis Kit was used to generate cDNA from RNA. The CFX96 Touch Real-Time PCR Detection System was used to determine the expressions of mCYP1A2, mCYP3A11, and β-actin genes using the iTaq Universal SYBR Green Supermix. The PCR condition and the delta-delta Ct calculation were according to the previously described article. All primers used in this study were synthesized by Gibthai Co. Ltd. (Bangkok, Thailand).

[5] = test system: mCYP3A11 mRNA; assay: ex vivo mCYP3A11 mRNA expression in mouse livers (real-time PCR); details: male ICR mice, daily oral 100 mg/kg body weight, vs control
Text: as §2, §3

[6] = test system: mCYP1A2; assay: ex vivo mCYP1A2 activity in mouse liver microsomes (phenacetin O-deethylation); details: daily oral 100 mg/kg body weight
Text: Phenacetin and nifedipine are substrates of CYP1A2 and CYP3A11, respectively. Both substrates are converted via the CYP enzyme to paracetamol and dehydronefedipine, respectively. The concentrations of paracetamol and dehydronefedipine were used to determine the activities of mCYP1A2 and mCYP3A11. The effects of atractylodin and β-eudesmol on mCYP1A2 and mCYP3A11 activities were, respectively, determined by measuring paracetamol (mCYP1A2-dependent metabolite) and dehydronifiedipine (mCYP3A11-dependent metabolite) concentrations.
as §2
Mouse liver samples were cut into small pieces, and the liver microsomes were prepared as described previously. The concentrations of proteins in the microsomes were determined using Pierce™ BCA Protein Assay Kit. mCYP1A2 and mCYP3A11 activities were evaluated based on phenacetin O-deethylation and nifedipine oxidation activities, respectively. The incubation mixture of 500 µL consisted of microsomes, substrate ([…]), and NADPH. […] The final organic solvent concentration in the incubation mixture was not higher than 1%. Each experiment was repeated three times (duplicated each). Determination of the concentrations of metabolites of mCYP1A2 (paracetamol) and mCYP3A11 (dehydronifedipine) in the reaction was performed using HPLC Agilent 1260 Infinity II with mobile gradient phase between methanol and distilled water at an initial ratio of 20:80 (v:v) and UV detection (240 nm). Calibration curves for both CYP450 activities were created over a concentration range of 1–50 µM. Oxidized nifedipine concentrations were determined using HPLC as follows: UV detection at 235 nm with an isocratic mobile phase consisting of methanol and distilled water (70:30, v:v). […] In each analytical batch, quality control (QC) samples were run in duplicate at low, medium, and high concentrations. Acceptance criteria were four out of six QC analyses falling within 100 ± 15% of the nominal values.

Sequence of rCYP2C9 (P11712 whole entry): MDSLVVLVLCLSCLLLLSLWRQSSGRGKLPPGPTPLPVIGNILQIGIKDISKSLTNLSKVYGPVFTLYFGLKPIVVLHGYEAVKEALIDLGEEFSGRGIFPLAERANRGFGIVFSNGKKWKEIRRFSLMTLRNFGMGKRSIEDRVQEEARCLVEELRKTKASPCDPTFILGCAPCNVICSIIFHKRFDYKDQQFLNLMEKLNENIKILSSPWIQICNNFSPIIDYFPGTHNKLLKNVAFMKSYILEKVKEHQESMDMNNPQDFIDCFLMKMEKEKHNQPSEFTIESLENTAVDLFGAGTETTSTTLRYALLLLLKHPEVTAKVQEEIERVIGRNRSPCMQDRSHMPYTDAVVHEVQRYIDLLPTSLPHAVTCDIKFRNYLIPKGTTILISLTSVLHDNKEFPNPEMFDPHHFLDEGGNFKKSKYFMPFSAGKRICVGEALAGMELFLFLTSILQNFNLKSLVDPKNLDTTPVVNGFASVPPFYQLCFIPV

`C=C1CCC[C@]2(C)CC[C@@H](C(C)(C)O)C[C@@H]12` [β-Eudesmol] gave an IC50 ([1]; Median IC50 (Range) rCYP2C9, median (range)) of 533 µM, an IC50 ([2]; Median IC50 (Range) rCYP2C19, median (range)) of 173 µM and an IC50 ([3]; Median IC50 (Range) rCYP3A4, median (range)) of 219 µM. The “Fold-changes of mCYP1A2 mRNA levels” value ([4]; 1 day) was 2.63 fold, the “Fold-changes of mCYP1A2 mRNA levels” value ([4]; 7 days) was 1.44 fold and the “Fold-changes of mCYP1A2 mRNA levels” value ([4]; 14 days) was 1.37 fold. For the same molecule, the “Fold-changes of mCYP1A2 mRNA levels” value ([4]; 21 days) was 0.91 fold, the “Fold-changes of mCYP3A11 mRNA levels” value ([5]; 1 day, 100 mg/kg) was 2.18 fold and the “Fold-changes of mCYP3A11 mRNA levels” value ([5]; 7 days, 100 mg/kg) was 1.5 fold. For the same molecule, the “Fold-changes of mCYP3A11 mRNA levels” value ([5]; 7 days, listed as β‐eudesmol, 100 mg/kg) was 1.50 fold, the “Fold-changes of mCYP3A11 mRNA levels” value ([5]; 14 days) was 0.96 fold and the “Fold-changes of mCYP3A11 mRNA levels” value ([5]; 21 days) was 0.78 fold. For the same molecule, the “Paracetamol concentration (mCYP1A2 activity)” value (“Paracetamol concentration” for short) ([6]; 1 day, control 11.40) was 12.35 µM, the “Paracetamol concentration” value ([6]; 7 days, control 12.25) was 11.80 µM and the “Paracetamol concentration” value ([6]; 14 days, control 12.80) was 13.25 µM. The “Paracetamol concentration” value ([6]; 21 days, control 12.90, listed as β-eudesmol, 100 mg/kg) was “significantly decreased” and the “Paracetamol concentration” value ([6]; 21 days, control 12.90, listed as β‐eudesmol, 100 mg/kg) was 8.30 µM.

`C/C=C/C#CC#C/C=C/c1ccco1` [Atractylodin] was tested, and the “Median IC50 (Range) rCYP2C9” value ([1]; median (range)) was over 125 µg/mL, the IC50 ([1]; read-out: Median IC50 (Range) rCYP2C9, median (range)) was over 686 µM and the “Median IC50 (Range) rCYP2C19” value ([2]; median (range)) was over 125 µg/mL. For the same molecule, the IC50 ([2]; read-out: Median IC50 (Range) rCYP2C19, median (range)) was over 686 µM, the “Median IC50 (Range) rCYP3A4” value ([3]; median (range)) was over 125 µg/mL and the IC50 ([3]; read-out: Median IC50 (Range) rCYP3A4, median (range)) was over 686 µM. The “Fold-changes of mCYP1A2 mRNA levels” value ([4]; 1 day, 100 mg/kg) was 1.6 fold, the “Fold-changes of mCYP1A2 mRNA levels” value ([4]; 1 day, listed as Atactylodin, 100 mg/kg) was 1.60 fold and the “Fold-changes of mCYP1A2 mRNA levels” value ([4]; 7 days, 100 mg/kg) was 1.2 fold. For the same molecule, the “Fold-changes of mCYP1A2 mRNA levels” value ([4]; 7 days, listed as Atactylodin, 100 mg/kg) was 1.20 fold, the “Fold-changes of mCYP1A2 mRNA levels” value ([4]; 14 days) was 0.89 fold and the “Fold-changes of mCYP1A2 mRNA levels” value ([4]; 21 days) was 0.71 fold. For the same molecule, the “Fold-changes of mCYP3A11 mRNA levels” value ([5]; 1 day) was 1.72 fold, the “Fold-changes of mCYP3A11 mRNA levels” value ([5]; 7 days) was 1.3 fold and the “Fold-changes of mCYP3A11 mRNA levels” value ([5]; 14 days) was 0.87 fold. The “Fold-changes of mCYP3A11 mRNA levels” value ([5]; 21 days) was 0.62 fold, the “Paracetamol concentration” value ([6]; 1 day, control 11.40, 100 mg/kg) was “significantly increased” and the “Paracetamol concentration” value ([6]; 1 day, control 11.40, listed as Atactylodin, 100 mg/kg) was 15.80 µM. For the same molecule, the “Paracetamol concentration” value ([6]; 7 days, control 12.25) was 12.00 µM, the “Paracetamol concentration” value ([6]; 14 days, control 12.80) was 14.50 µM and the “Paracetamol concentration” value ([6]; 21 days, control 12.90, 100 mg/kg) was “significant decrease”. For the same molecule, the “Paracetamol concentration” value ([6]; 21 days, control 12.90, listed as Atactylodin, 100 mg/kg) was 10.60 µM.
